Measured values published in ChEMBL document CHEMBL5465560, “Selectivity Literature for EUbOPEN Chemogenomic Library” (2024).

What was measured:
[1] = tested on: Tyrosine-protein kinase ABL1 (Homo sapiens), P00519 [T315I]; experiment: Selectivity interaction (KinomeScan (DiscoverX)) EUB0000229b ABL1; conditions: at 1 µM
[2] = biological target: T1, Dual specificity tyrosine-phosphorylation-regulated kinase 2 (Homo sapiens) (UniProt Q92630); experiment: Selectivity interaction (Upstate Kinase Profiler service (Millipore)) EUB0000056c DYRK2; conditions: at 1 µM
T1 sequence (whole entry): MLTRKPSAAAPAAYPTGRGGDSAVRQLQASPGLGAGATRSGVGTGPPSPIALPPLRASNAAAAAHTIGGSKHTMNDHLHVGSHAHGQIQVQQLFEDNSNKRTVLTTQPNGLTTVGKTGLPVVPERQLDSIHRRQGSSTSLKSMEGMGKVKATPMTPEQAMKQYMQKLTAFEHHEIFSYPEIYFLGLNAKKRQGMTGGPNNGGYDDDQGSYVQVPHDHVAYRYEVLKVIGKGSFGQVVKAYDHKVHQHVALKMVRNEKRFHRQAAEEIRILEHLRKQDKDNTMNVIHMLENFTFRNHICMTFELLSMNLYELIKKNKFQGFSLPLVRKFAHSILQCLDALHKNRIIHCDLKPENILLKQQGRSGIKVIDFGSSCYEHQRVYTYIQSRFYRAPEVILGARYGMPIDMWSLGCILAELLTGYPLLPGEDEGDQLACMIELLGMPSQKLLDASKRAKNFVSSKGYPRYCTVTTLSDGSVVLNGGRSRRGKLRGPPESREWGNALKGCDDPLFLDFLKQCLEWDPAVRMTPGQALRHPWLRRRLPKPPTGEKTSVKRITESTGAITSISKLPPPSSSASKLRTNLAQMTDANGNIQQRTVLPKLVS

[3] = biological target: Rho-associated protein kinase 1 (Homo sapiens) (UniProt Q13464); experiment: Selectivity interaction (KinomeScan (DiscoverX)) EUB0000655a ROCK1; conditions: at 10 µM
Sequence of Rho-associated protein kinase 1 (Homo sapiens) (Q13464 2-1354 limits assumed): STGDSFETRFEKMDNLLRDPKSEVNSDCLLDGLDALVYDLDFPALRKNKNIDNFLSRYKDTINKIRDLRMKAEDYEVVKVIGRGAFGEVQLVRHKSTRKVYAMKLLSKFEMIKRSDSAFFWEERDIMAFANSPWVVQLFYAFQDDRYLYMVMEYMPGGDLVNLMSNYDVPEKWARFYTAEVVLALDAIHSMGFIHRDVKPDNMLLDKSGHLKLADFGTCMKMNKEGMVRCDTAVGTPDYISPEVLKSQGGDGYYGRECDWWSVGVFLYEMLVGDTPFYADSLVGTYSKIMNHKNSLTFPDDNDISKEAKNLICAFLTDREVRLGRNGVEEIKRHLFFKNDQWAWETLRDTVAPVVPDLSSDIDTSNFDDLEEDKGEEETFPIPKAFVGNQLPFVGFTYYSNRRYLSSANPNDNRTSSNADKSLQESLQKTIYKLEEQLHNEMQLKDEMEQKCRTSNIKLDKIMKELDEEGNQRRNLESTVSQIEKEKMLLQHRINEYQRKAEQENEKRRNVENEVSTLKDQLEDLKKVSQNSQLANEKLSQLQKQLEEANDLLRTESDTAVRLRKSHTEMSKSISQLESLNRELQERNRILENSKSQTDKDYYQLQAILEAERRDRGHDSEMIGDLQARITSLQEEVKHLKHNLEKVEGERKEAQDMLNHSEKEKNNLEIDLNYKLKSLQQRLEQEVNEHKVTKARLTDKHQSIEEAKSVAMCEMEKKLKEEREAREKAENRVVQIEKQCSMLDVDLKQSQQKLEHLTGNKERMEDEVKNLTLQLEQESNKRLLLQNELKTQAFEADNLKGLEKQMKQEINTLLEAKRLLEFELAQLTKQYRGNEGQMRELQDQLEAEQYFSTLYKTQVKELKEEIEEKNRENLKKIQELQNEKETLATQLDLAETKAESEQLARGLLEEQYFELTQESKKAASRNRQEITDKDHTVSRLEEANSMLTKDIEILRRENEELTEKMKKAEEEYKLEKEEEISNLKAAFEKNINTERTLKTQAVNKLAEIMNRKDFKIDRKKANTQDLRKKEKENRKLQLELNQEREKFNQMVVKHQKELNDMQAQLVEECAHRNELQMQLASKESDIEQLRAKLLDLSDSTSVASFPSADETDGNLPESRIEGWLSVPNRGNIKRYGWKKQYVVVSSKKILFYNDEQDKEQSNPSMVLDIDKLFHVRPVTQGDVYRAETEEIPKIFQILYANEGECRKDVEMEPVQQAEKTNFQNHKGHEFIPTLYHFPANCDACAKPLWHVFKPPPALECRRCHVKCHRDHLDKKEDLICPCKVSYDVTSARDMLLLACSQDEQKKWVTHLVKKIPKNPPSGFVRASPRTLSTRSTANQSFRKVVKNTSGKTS

[4] = biological target: T2, Serine/threonine-protein kinase TAO2 (Homo sapiens) (UniProt Q9UL54); experiment: Selectivity interaction (KinomeScan (DiscoverX)) EUB0000655a TAOK2; conditions: at 10 µM
T2 sequence (whole entry): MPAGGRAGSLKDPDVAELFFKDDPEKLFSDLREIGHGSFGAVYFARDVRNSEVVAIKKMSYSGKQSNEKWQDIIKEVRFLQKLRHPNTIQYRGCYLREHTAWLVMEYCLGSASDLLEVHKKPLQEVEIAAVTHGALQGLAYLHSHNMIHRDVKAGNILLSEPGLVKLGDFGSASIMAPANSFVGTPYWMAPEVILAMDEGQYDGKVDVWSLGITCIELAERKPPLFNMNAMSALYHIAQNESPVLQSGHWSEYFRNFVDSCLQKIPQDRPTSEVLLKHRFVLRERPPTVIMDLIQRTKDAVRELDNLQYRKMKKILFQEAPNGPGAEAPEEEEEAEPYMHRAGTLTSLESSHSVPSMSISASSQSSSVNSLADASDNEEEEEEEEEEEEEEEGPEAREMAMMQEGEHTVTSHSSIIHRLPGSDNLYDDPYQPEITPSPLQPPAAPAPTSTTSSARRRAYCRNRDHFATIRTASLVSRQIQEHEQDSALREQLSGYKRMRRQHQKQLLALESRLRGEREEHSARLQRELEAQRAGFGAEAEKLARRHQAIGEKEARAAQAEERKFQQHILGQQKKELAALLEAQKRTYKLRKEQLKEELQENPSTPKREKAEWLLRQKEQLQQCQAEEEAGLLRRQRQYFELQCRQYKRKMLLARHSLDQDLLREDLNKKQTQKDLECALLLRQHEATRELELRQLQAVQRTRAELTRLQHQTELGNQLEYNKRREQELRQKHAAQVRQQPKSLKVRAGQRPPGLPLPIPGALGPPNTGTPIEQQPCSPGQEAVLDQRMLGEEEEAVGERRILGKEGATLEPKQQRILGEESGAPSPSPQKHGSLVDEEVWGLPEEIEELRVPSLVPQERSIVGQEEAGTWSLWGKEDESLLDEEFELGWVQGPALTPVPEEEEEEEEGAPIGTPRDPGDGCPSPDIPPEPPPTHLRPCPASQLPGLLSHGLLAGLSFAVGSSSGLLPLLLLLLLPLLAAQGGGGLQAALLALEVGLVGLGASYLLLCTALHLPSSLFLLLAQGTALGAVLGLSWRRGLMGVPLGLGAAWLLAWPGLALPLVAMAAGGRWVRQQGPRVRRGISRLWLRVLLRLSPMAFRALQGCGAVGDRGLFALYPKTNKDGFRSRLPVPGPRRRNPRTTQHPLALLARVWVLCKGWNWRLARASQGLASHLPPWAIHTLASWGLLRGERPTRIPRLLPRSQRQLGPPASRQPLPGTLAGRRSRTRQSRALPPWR

[5] = biological target: Ribosomal protein S6 kinase beta-1 (Homo sapiens, UniProt P23443); experiment: Selectivity interaction (KinomeScan (DiscoverX)) EUB0001079a RPS6KB1; conditions: at 1 µM
Sequence of Ribosomal protein S6 kinase beta-1 (P23443 whole entry, looked up): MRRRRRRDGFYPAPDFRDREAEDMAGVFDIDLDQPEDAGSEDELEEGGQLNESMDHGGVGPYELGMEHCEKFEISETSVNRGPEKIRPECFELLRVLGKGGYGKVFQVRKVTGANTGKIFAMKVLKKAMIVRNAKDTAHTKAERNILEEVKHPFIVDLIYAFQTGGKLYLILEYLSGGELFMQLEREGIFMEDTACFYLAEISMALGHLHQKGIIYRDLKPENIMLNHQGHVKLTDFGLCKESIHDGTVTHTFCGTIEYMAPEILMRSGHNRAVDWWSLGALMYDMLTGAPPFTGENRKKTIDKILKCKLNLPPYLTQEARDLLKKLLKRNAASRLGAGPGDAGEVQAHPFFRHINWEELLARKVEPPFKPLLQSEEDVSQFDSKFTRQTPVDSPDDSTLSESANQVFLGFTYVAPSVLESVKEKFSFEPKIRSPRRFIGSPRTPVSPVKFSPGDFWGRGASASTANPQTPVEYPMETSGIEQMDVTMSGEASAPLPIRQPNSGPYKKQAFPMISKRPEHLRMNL

[6] = biological target: Serine/threonine-protein kinase N2 (Homo sapiens, UniProt Q16513); experiment: Selectivity interaction (Millipore kinase profiler) EUB0000124b PKN2; conditions: at 10 µM
[7] = biological target: Voltage-gated inwardly rectifying potassium channel KCNH2 (Homo sapiens, UniProt Q12809); experiment: Selectivity interaction (Panel of non-epigenetic targets (kinases, GPCRs, ion channels, and transporters, Eurofins) ) EUB0000271b KCNH2; conditions: at 1 µM
Sequence of Voltage-gated inwardly rectifying potassium channel KCNH2 (Q12809 whole entry): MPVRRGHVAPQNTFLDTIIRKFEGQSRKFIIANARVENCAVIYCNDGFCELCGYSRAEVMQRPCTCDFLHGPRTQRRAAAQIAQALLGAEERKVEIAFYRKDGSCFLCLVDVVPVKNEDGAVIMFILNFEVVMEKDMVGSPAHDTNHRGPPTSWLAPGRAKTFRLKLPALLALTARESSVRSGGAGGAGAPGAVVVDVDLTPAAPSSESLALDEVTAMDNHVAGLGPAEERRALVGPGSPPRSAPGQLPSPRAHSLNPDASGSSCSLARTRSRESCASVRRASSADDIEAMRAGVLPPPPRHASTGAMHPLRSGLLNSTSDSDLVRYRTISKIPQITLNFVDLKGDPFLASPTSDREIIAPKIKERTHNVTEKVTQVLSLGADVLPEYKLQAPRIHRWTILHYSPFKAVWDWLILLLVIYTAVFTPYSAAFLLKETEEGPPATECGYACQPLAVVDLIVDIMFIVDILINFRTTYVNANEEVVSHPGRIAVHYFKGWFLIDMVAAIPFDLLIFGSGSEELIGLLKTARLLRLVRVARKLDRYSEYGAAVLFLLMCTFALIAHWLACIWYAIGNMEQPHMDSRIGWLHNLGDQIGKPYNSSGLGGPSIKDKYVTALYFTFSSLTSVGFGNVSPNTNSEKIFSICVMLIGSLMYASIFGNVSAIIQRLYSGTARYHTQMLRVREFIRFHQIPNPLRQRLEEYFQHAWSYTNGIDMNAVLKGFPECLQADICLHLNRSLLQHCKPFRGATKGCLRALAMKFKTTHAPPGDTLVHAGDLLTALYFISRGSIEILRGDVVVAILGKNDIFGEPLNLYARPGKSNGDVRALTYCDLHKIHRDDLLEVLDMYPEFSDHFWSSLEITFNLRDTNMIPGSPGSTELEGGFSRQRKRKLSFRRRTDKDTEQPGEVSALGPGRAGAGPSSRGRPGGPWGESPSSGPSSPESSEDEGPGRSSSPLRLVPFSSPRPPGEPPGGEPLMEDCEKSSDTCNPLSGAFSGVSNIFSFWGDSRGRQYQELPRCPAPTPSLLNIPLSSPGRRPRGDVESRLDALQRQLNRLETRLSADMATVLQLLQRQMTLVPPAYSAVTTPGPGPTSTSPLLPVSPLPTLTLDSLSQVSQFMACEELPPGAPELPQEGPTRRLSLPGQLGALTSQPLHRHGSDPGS

[8] = biological target: Casein kinase II subunit alpha (Homo sapiens, UniProt P68400); experiment: Selectivity interaction (Kinase panel (literature)) EUB0001199aCl CSNK2A1; conditions: at 1 µM
Sequence of Casein kinase II subunit alpha (P68400 whole entry, looked up, the tested form may be a part): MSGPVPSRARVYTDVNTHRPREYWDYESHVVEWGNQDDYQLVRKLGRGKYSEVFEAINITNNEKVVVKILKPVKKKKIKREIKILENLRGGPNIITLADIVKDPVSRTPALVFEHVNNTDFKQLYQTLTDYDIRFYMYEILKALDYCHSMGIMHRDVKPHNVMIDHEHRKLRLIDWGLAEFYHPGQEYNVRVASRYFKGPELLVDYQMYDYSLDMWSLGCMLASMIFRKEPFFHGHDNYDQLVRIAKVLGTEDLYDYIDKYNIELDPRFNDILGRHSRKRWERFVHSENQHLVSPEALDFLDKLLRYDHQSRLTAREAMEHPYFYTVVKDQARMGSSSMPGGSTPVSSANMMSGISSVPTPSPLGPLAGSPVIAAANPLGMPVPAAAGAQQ

[9] = biological target: PAS domain-containing serine/threonine-protein kinase (Homo sapiens) (UniProt Q96RG2); experiment: Selectivity interaction (Kinase screening (Nanosyn)) EUB0000604a PASK
Sequence of PAS domain-containing serine/threonine-protein kinase (Homo sapiens) (Q96RG2 whole entry, the tested form may be a part): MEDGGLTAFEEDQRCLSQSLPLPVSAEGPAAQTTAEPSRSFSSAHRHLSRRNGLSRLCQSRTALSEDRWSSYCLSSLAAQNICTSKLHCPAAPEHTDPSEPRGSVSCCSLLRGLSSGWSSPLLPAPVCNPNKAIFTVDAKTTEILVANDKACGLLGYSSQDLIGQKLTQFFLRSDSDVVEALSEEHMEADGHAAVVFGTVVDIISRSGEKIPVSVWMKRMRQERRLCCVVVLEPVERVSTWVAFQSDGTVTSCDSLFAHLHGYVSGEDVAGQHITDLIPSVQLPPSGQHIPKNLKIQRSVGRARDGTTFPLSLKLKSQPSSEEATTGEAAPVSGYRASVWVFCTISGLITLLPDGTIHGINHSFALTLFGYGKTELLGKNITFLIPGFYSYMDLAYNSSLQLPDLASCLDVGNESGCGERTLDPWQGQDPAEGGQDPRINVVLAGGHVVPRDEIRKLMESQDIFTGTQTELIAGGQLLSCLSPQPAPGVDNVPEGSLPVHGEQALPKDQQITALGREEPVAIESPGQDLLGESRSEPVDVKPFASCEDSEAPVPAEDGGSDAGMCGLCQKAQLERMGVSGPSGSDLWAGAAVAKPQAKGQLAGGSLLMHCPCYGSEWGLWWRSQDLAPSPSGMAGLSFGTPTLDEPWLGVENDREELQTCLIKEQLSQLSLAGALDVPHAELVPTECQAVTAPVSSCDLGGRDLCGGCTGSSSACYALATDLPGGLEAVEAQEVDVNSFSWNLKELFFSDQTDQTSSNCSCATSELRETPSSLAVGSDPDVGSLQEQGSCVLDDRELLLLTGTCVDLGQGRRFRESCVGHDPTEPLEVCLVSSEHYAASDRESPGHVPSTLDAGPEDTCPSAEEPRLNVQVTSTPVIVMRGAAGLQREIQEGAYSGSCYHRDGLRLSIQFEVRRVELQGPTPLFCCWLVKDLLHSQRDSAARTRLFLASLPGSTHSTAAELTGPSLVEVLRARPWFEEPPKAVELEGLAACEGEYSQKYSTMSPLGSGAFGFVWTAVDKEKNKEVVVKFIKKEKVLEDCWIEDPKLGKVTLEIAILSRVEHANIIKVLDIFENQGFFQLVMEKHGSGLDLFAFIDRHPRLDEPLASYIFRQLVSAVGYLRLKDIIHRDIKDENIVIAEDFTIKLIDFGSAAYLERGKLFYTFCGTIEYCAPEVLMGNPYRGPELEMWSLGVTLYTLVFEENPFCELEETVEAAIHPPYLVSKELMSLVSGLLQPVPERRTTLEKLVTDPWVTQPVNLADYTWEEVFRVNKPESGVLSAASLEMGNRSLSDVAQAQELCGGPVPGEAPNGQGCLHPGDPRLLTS

[10] = biological target: T3, Histone-arginine methyltransferase CARM1 (Homo sapiens) (UniProt Q86X55); conditions: KMS-26, at 3 µM
T3 sequence (whole entry): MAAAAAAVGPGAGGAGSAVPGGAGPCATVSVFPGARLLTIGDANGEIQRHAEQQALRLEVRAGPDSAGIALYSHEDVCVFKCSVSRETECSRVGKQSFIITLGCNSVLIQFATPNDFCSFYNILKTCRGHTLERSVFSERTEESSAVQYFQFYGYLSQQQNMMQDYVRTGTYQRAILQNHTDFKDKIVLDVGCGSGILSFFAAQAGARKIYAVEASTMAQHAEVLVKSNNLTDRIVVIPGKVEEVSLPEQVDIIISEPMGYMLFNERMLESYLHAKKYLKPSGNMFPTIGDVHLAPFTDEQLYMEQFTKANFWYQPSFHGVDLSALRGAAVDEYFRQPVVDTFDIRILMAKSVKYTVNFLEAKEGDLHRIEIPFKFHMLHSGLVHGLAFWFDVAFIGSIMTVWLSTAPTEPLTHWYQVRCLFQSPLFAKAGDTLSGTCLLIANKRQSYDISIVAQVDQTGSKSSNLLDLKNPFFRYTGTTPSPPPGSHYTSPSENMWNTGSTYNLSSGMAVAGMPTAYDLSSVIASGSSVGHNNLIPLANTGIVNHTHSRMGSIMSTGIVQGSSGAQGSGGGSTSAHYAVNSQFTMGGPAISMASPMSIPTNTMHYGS

## COc1cc(N(C)c2ccnc3ccc(C(F)(F)F)cc23)cc(OC)c1OC
[1]
  % binding: 85%

## Cc1ccc(-c2ccc3c(ccc4sc5c(c43)NC[C@@H](C)NC5=O)n2)cn1
[2]
  % of inhibition: 27%

## CN(C)CCOc1ccc(-c2nc(-c3ccncc3)c(-c3ccc4c(c3)CC/C4=N\O)[nH]2)cc1
[3]
  % of control: 77%
[4]
  % of control: 65%

## Nc1cnc(N2CCc3cc(S(=O)(=O)Nc4c(F)cc(Cl)cc4F)cc(N4CCCC4=O)c32)nc1 [TP-020n]
[5]
  % of control: 83%

## CC(=O)Nc1cccc(-n2c(=O)n(C3CC3)c(=O)c3c(Nc4ccc(I)cc4F)n(C)c(=O)c(C)c32)c1
[6]
  % of control: 98%

## Cc1cc(C)cc([C@@H]2c3cc(C)ccc3NC(=O)CN2C(=O)c2ccc(Br)s2)c1
[7]
  % of inhibition: 0%

## CN1Cc2nccc(-c3cn(C)nc3-c3ccc(F)cc3)c2C1=O
[8]
  % of inhibition: -3%

## Cc1cnc(Nc2ccc(F)cc2Cl)nc1-c1c[nH]c(C(=O)N[C@H](CO)c2cccc(Cl)c2)c1
[9]
  % of inhibition: 19%

## CNCCN1CCC(c2cc(CN(C)C(=O)c3cccc(Oc4ccccc4)c3)ccn2)CC1
[10]
  % of growth rate: -19.5%
